The source made the active and inactive calls. No cut-off for these calls is given here.

The target of test [1] is Tubulin. Put plainly: Inhibition of tubulin (unknown origin) polymerization measured for 1 hr by fluorescence assay in presence of GTP. It counts as protein-complex assay, Homo sapiens.
In test [2] the target is T1, Tubulin (Homo sapiens) (UniProt P68371+Q9H4B7+P0DPH7+P68366+Q13509+Q71U36+P04350+Q3ZCM7+P07437+P68363+Q9BQE3+Q6PEY2+Q13885+Q9BVA1+Q9BUF5). The test can be described thus: Inhibition of tubulin (unknown origin) polymerization at 5 uM measured for 1 hr by fluorescence assay in presence of GTP relative to control. It counts as protein-complex assay.
The subject of test [3] is DU-145. The test can be described thus: Cytotoxicity against human DU145 cells after 72 hrs by MTT assay. It counts as functional, cell-based. Particulars: DU-145, 72 h. For orientation: Tetrazolium dyes change colour on reduction, which living cells bring about.
Test [4] has as its target T1, Tubulin (Homo sapiens). Put plainly: Inhibition of tubulin polymerization in human HeLa cells assessed as disruption of microtubule organization at 1 uM after 48 hrs by immunohistochemical analysis. It counts as cell-based.
The test system of test [5] is HeLa. The test can be described thus: Induction of apoptosis in human HeLa cells assessed as […] condensation at 1 uM after 48 hrs by Hoechst 33342 staining-based fluorescence microscopic analysis. It counts as functional, cell-based.
The test system of test [6] is HeLa. Put plainly: Cell cycle arrest in human HeLa cells assessed as accumulation at sub-G1 phase at 0.5 uM after 24 hrs by propidium iodide staining-based FACS analysis (reference value: 3.07%). It counts as functional. A general note: A flow cytometer gives signals particle by particle.
The test system of test [7] is COLO 205. Put plainly: Cytotoxicity against human COLO205 cells after 72 hrs by MTT assay. It counts as functional, cell-based. Particulars: COLO 205, 72 h.
Test [8] concerns HeLa. The test can be described thus: Cell cycle arrest in human HeLa cells assessed as accumulation at G2/M phase at 0.5 uM after 24 hrs by propidium iodide staining-based FACS analysis (reference value: 21.10%). It counts as functional.
The test system of test [9] is HeLa. Put plainly: Induction of apoptosis in human HeLa cells assessed as presence of apoptotic bodies at 1 uM after 48 hrs by Hoechst 33342 staining-based fluorescence microscopic analysis. It counts as functional, cell-based.
The subject of test [10] is HeLa. The test can be described thus: Induction of apoptosis in human HeLa cells assessed as DNA fragmentation at 1 to 2 uM after 48 hrs by agarose gel electrophoresis. It counts as functional, cell-based.
In test [11] the test system is HeLa. The test can be described thus: Induction of apoptosis in human HeLa cells assessed as nuclear fragmentation at 1 uM after 48 hrs by Hoechst 33342 staining-based fluorescence microscopic analysis. It counts as functional, cell-based.
Test [12] concerns PC-3. The test can be described thus: Cytotoxicity against human PC3 cells after 72 hrs by MTT assay. It counts as functional, cell-based. As to conditions: PC-3, 72 h.
Test [13] has as its system HeLa. The test can be described thus: Cytotoxicity against human HeLa cells after 72 hrs by MTT assay. It counts as functional, cell-based.
Test [14] has as its system HeLa. Put plainly: Induction of apoptosis in human HeLa cells assessed as caspase-3 activation at 2 uM after 48 hrs by Ac-DEVD fluorescence assay relative to control. It counts as functional.
Test [15] concerns HT-29. Put plainly: Cytotoxicity against human HT-29 cells after 72 hrs by MTT assay. It counts as functional, cell-based. Particulars: HT-29, 72 h.
Test [16] has as its system HeLa. The test can be described thus: Cell cycle arrest in human HeLa cells assessed as accumulation at S phase at 0.5 uM after 24 hrs by propidium iodide staining-based FACS analysis (reference value: 4.62%). It counts as functional.
Test [17] concerns B16. The test can be described thus: Cytotoxicity against mouse B16 cells after 72 hrs by MTT assay. It counts as functional, cell-based. Particulars: B16, 72 h.
A short description of test [18]: Cytotoxicity against human ME180 cells after 72 hrs by MTT assay. It counts as functional, cell-based. Particulars: ME-180, 72 h.
The test system of test [19] is HeLa. Put plainly: Cell cycle arrest in human HeLa cells assessed as accumulation at G1 phase at 0.5 uM after 24 hrs by propidium iodide staining-based FACS analysis (reference value: 71.21%). It counts as functional.

Consider `COc1ccc(C(=O)c2cc(OC)c(OC)c(OC)c2)cc1NC(=O)/C=C/c1ccc(C(F)(F)F)cc1`, for which the IC50 – broadly, the concentration that gives 50% inhibition – in test [1] stood at 700 nM; in test [3], 4300 nM; in test [7], 2600 nM; in test [12], 3500 nM; in test [13] it was 90 nM; in test [15] it was 1600 nM. Also, the IC50 in test [17] was 100 nM; in [18], 800 nM. In [2], the inhibition (usually the percentage by which the read-out fell short of the control) was found to be 59.4%. In addition, the inhibition result in [4] was “Active”. Further, the result in test [5], in test [9], in test [10] and in test [11] was Active. Further, the Activity in test [6] is listed as 5.66%; in [8], 38.82%; in test [16] it was 5.92%; in test [19], 49.59%. In [14], the “fold change (FC)” value was 5.
`COc1ccc(C(=O)c2cc(OC)c(OC)c(OC)c2)cc1N`: the IC50 in test [1] worked out at 600 nM; in test [3] it was 2100 nM; in [7], 200 nM; in test [12], 1100 nM; in test [13], 60 nM; in [15] it was 50 nM. In addition, the IC50 in test [17] was determined as 30 nM; in [18], 80 nM. Further, the inhibition in test [2] was determined as 58.3%. Also, the inhibition entry in test [4] was “Active”. For the same molecule, the result in [5], in [9] and in [11] was Active. The Activity in test [6] is listed as 4.56%; in [8] it was 37.36%; in test [16], 5.07%; in test [19], 53%. In addition, the “fold change (FC)” value in test [14] amounted to 5.
Turning to `COc1cc(/C=C/C(=O)Nc2cc(C(=O)c3cc(OC)c(OC)c(OC)c3)ccc2OC)ccc1F`, the IC50 stood at 12100 nM in [3]; 11800 nM in test [7]; 14100 nM in test [12]; 13600 nM in test [13]; 7700 nM in test [15]; 16300 nM in test [17]. This molecule registered an IC50 in test [18] of 15500 nM.
As to `COc1ccc(C(=O)c2cc(OC)c(OC)c(OC)c2)cc1NC(=O)/C=C/c1ccc(F)cc1`, the IC50 was 600 nM in test [1]; 3900 nM in [3]; 3400 nM in test [7]; 3200 nM in test [12]; 60 nM in test [13]; 1800 nM in test [15]. Moreover, the IC50 in test [17] came out at 400 nM; in [18], 300 nM. Moreover, the inhibition in test [2] amounted to 60.5%. Further, in [4], the inhibition entry is “Active”. The result in test [5], in [9], in test [10] and in [11] was Active. Moreover, the Activity in [6] was determined as 2.96%; in test [8], 36.62%; in [16], 7.4%; in test [19], 53.02%. Besides, the “fold change (FC)” value in test [14] is 5.

The values above are taken from ChEMBL document CHEMBL3259744, “Synthesis and biological evaluation of cinnamido linked benzophenone hybrids as tubulin polymerization inhibitors and apoptosis inducing agents” (Bioorg Med Chem Lett, 2014).
